Source: patent US20150098969A1, “ALTERNARIA PEPTIDES” (priority 2012, published 2015)
Where no end group is shown, it is not given here. [ ]: non-standard residue; d: D form. pGlu = O=C1CC[C@@H](C(=O)O)N1; Nle = CCCC[C@H](N)C(=O)O

System: Peripheral blood mononuclear cells (PBMCs)
Assay: Cytokine release assay (multiplex bead assay IL-10, IL-13, IFN-g) and analysis of population coverage
Format: cell-based, human
Conditions: for % responders: cytokine release greater than 50 pg/ml in one or more of IL-13, IL-10, IFN-g, 50 mould allergic subjects, 100 μg/ml, 5 days
Protocol: Polypeptides for use in this assay were manufactured at small scale (approximately 10 mg batch size, non-GMP). […] Polypeptides were added to wells in a volume of 100 μl containing polypeptides at a concentration of […], such that subsequent addition of 100 μl of cells would create a final assay concentration of 100 μg/ml.
Peripheral blood mononuclear cells (PBMCs) were isolated from heparinised blood by Ficoll density gradient centrifugation. […] Following stimulation, culture supernatants (100 μl) were harvested for testing by multiplex bead assay.
Multiplex cytokine bead assays (IL-10, IL-13, Interferon gamma (IFN-g)) were performed on thawed culture supernatants according to the manufacturer's instructions. Single measurements were performed for each culture supernatant sample. After completion of the multiplex assay, individual cytokine levels were determined by interpolation from the standard curve generated in the assay. A positive result was taken as a cytokine release of greater than 50 pg/ml in one or more of the IL-13, IL-10 and IFN-g assays. The number of responders out of 50 mould allergic subjects tested was calculated for each polypeptide for the three cytokines.
An analysis of population coverage was carried out to determine what polypeptides could advantageously capture additional responses from the population when included in combination with other peptides. The number of subjects in the population displaying IL-13 or IFN-g responses to at least one, two or three polypeptides included in a given combination was analysed.
An analysis of population coverage was then carried out for additional combinations of polypeptides identified as having preferable pharmaceutical development characteristics. The number of subjects in the population displaying IL-13 or IFN-g responses to at least one, two or three polypeptides included in a given combination was analysed.

Row | Substance | % responders [%] | individuals showing a response (responders out of 50 individuals)
1 | AEVYQKLKALAKK [Alt12] | 38 | 
2 | AEVYQKLKALAKKTYGQ [Alt13A] | 86 | 34/50
3 | DITYVATATLPNYSR [Alt02A] | 30 | 
4 | GLHFRERKTGSLVIT [Alt21] | 38 | 
5 | GWGV-Nle-VSHRSGET (GWGV[Nle]VSHRSGET) [Alt14A] | 56 | 
6 | GWGVMVSHRSGET [Alt14] | 44 | 
7 | GYTGKIKIA-Nle-DVASSE (GYTGKIKIA[Nle]DVASSE) [Alt15A] | 42 | 
8 | GYTGKIKIAMDVASSE [Alt15] | 56 | 
9 | HEIYVVDRVSAP [Alt30] | 36 | 
10 | IEKLRSNITVQYDI [Alt33] | 44 | 
11 | IFRSLSKEDPDY [Alt04] | 6 | 
12 | IFRSLSKEEPDY [Alt04A] | 4 | 
13 | KDAYITLVTLPKSS [Alt03] | 22 | 
14 | KDITYVATATLPNY [Alt02] | 36 | 
15 | KEYQKIFPSIQVI [Alt09] | 6 | 
16 | KKDAYITLVTLPKSS [Alt03A] | 16 | 
17 | KKVS-Nle-AIAKAAAAEK (KKVS[Nle]AIAKAAAAEK) [Alt11A] | 44 | 
18 | KKVSMAIAKAAAAEK [Alt11] | 36 | 
19 | KKYAGVFVSTGTLGGGK [Alt18] | 50 | 
20 | KLFQVAETLPQEVLDK [Alt17] | 30 | 
21 | KLWHS-Nle-IP-Nle-GRDAK (KLWHS[Nle]IP[Nle]GRDAK) [Alt24A] | 40 | 
22 | KLWHSMIP-Nle-GRDAK (KLWHSMIP[Nle]GRDAK) [Alt24C] | 36 | 
23 | KLWHSMIPMGRDAK [Alt24] | 34 | 
24 | KQLL-Nle-LSAKR-Nle-KVAFK (KQLL[Nle]LSAKR[Nle]KVAFK) [Alt05A] | 10 | 

Row | Substance | % responders [%] | individuals showing a response (responders out of 50 individuals)
25 | KQLL-Nle-LSAKRMKVAFK (KQLL[Nle]LSAKRMKVAFK) [Alt05B] | 12 | 
26 | KQLLMLSAKR-Nle-KVAFK [Alt05C] | 16 | 
27 | KQLLMLSAKRMKVAFK [Alt05] | 2 | 
28 | KRSLLVFAVRSS-Nle-ELRK [Alt27A] | 42 | 
29 | KRSLLVFAVRSSMELRK [Alt27] | 40 | 
30 | KSAFRSIEPELTVYK [Alt10A] | 34 | 
31 | KTYVATATLPNY [Alt02B] | 22 | 
32 | KYRRVVRAGVKVAQTAR [Alt34A] | 38 | 
33 | KYWLYFYKLHPEK [Alt32] | 36 | 
34 | LAITYNSRAEGAEK [Alt20] | 38 | 
35 | LQFTLYRPRDLLS [Alt07] | 10 | 
36 | NEWRDFARVNSISP [Alt23] | 40 | 
37 | NWLTLHTAALGPTAK [Alt31] | 58 | 
38 | PyrKLKALAKKTYGQ ([pGlu]KLKALAKKTYGQ) [Alt13] | 40 | 
39 | SAFRSIEPELTVY [Alt10] | 42 | 
40 | SAKR-Nle-KVAFKLDIEK (SAKR[Nle]KVAFKLDIEK) [Alt06A] | 10 | 
41 | SAKRMKVAFKLDIEK [Alt06] | 16 | 
42 | SLGFNIKATNGGTLD [Alt01A] | 26 | 
43 | SYNVAKAGCIHLAK [Alt22] | 46 | 
44 | SYNVAKAGSIHLAK [Alt22A] | 44 | 
45 | TLYRPRDLLSLLNE [Alt08] | 10 | 
46 | TYYNSLGFNIKATNGGTL [Alt01] | 20 | 
47 | WSWKIGPAIATGNT [Alt28] | 52 | 
48 | YEKYRRVVRAGVKV [Alt34] | 38 | 
